Key:
[1] = system: HIV-1 K103N mutant strain; assay: Anti-HIV activity in MT-4 cells, MTT method, K103N mutant strain; format: cell-based; details: Human immunodeficiency virus 1, MT4, read-out: EC50 (anti-HIV activity)
Text: Pannecouque et al. Nat. Protoc.

[2] = system: HIV-1 E138K mutant strain; assay: microbe, parasite or virus in culture; details: Human immunodeficiency virus 1, MT4, read-out: EC50 (anti-HIV activity)
[3] = system: HIV-1 L100I mutant strain; assay: microbe, parasite or virus in culture; details: Human immunodeficiency virus 1, MT4, read-out: EC50 (anti-HIV activity)
WT HIV-1 strain (IIIB) = assay: Anti-HIV activity in MT-4 cells, MTT method, WT HIV-1 strain (IIIB); format: cell-based
Text: Etravirine (ETR) was selected as control drug.
Pannecouque et al. Nat. Protoc. […] Methods 20(1988) 309-321.

[4] = system: HIV-1 mutant strains (K101E, V108I, F227C, M230I in RT gene); assay: Activity against mutant strains selected by passaging HIV-1 IIIB 30 times in the presence of DK6-1; format: cell-based

In the case of `Cc1cc(/C=C/C#N)cc(C)c1Oc1nc(NC2CCN(Cc3ccc(S(N)(=O)=O)cc3)CC2)nc2sccc12` [DK6-1], the EC50 [1] is reported as 2.34 nM, the EC50 [2] is reported as under 8 nM and the EC50 [3] is reported as under 8 nM. It also gave an EC50 (WT HIV-1 strain (IIIB); Human immunodeficiency virus 1, MT4, HIV-1 IIIB wild-type) of 3.24 nM.
In the case of `Cc1cn([C@H]2C[C@H](N=[N+]=[N-])[C@@H](CO)O2)c(=O)[nH]c1=O` [AZT], the EC50 ([4]; mutant strains with K101E, V108I, F227C, M230I) is reported as 1 nM, the “fold potent versus own activity against HIV-1 IIIB” value ([4]; selected mutant strains vs HIV-1 IIIB) is reported as “about 10 fold” and the EC50 (WT HIV-1 strain (IIIB); HIV-1 IIIB wild-type) is reported as 12.7 nM.

— patent US12351586B2 (priority 2020, dated 2025)
